From patent US20230381134A1, “COCRYSTALS OF CANNABINOIDS” (PURISYS, LLC, priority 2020, published 2023)

Columns and labels:
[1] = solid, ambient conditions / storage
Procedure: PXRD diffractograms were acquired on a PANalytical X'Pert Pro diffractometer using Ni-filtered Cu Ka (45 kV/40 mA) radiation and a step size of 0.03° 2θ and X'celerator™ RTMS (Real Time Multi-Strip) detector. Configuration on the incidental beam side: variable divergence slits (10 mm irradiated length), 0.04 rad Soller slits, fixed anti-scatter slit (0.50°), and 10 mm beam mask. Configuration on the diffracted beam side: variable anti-scatter slit (10 mm observed length) and 0.04 rad Soller slit. Samples were mounted flat on zero-background Si wafers.
PXRD diffractograms were acquired on a Bruker D8 Advance system (SN:2631) using Cu Ka (40 kV/40 mA) radiation and a step size of 0.03° 2θ and LynxEye detector. Configuration on the incident beam side: Goebel mirror, mirror exit slit (0.2 mm), 2.5 deg Soller slits, beam knife. Configuration on the diffracted beam side: anti-scatter slit (8 mm) and 2.5 deg. Soller slit. Samples were mounted flat on zero-background Si wafers.

CB1 receptor = CB1 receptor (Homo sapiens, UniProt P21554); details: cited from earlier work
[2] = target: cannabinoid G-protein coupled receptor CB2 (Homo sapiens, UniProt P34972); details: cited from earlier work
[3] = Solubility of the cannabinol starting material in various solvents

cannabinoid G-protein coupled receptor CB2, sequence (P34972 whole entry): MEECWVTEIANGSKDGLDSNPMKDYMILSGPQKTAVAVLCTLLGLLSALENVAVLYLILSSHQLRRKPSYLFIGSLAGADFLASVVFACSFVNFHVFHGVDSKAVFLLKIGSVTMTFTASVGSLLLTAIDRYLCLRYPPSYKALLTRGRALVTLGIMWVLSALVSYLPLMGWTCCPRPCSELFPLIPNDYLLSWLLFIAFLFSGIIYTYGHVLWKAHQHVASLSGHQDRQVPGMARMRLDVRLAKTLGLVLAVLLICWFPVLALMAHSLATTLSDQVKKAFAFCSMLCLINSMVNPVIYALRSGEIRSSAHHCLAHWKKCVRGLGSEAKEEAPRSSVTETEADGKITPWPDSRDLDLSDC
CB1 receptor, sequence (P21554 whole entry): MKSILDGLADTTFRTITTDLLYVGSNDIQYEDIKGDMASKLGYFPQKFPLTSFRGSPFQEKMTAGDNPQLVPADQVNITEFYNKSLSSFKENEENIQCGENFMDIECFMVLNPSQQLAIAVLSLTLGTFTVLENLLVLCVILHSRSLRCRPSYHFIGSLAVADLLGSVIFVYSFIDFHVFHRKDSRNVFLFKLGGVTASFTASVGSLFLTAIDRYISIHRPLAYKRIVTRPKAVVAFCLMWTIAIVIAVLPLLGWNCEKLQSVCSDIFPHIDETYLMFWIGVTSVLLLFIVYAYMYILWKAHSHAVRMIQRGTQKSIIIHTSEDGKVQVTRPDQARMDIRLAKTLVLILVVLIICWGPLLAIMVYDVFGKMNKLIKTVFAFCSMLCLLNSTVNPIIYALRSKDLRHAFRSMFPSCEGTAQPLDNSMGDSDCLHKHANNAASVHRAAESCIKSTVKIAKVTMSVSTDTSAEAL

SMILES | physical stability by PXRD [1] | affinity for CB1 (CB1 receptor) | binding to CB2 [2] | affinity for CB2 receptor relative to THC (fold lower) ([2]; relative to THC) | solubility ([3]; water (1% methanol)) [mg/mL] | solubility ([3]; water (1% methanol), 40 °C) [mg/mL] | solubility ([3]; water (denatured with 1% MeOH)) [mg/mL]
CCCCCc1cc(O)c2c(c1)OC(C)(C)c1ccc(C)cc1-2.O=C(O)C1CCCN1 [Mono-L-Proline Cocrystal Group C] | physically stable by PXRD for three days at ambient | – | – | – | – | – | –
CCCCCc1cc(O)c2c(c1)OC(C)(C)c1ccc(C)cc1-2 [cannabinol, 6,6,9-Trimethyl-3-pentyl-benzo[c]chromen-1-ol] | – | minimal affinity | preferentially binds | about 3 fold | < 20 | < 20 | < 20
